In patent US20200361871A1 (Enterprise Therapeutics Ltd., priority 2018, published 2020):

Target: human TMEM16A (TMEM16Aabc variant) (Homo sapiens, UniProt Q5XXA6, DEL476-501, form not given)
Test: Automated whole-cell patch clamp (Qpatch) TMEM16A potentiator assay in FRT cells stably expressing human TMEM16A
Format: cell-based
Details: for % Potentiation @ 3.33 μM Avg: 3.33 μM solution of test compound, percentage increase of baseline TMEM16A current; for EC50: calculated EC50, Qpatch TMEM16A current at +70 mV
In short: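 FRT cells stably expressing human TMEM16Aabc were recorded by automated whole-cell patch clamp, with intracellular Ca2+ buffered for ~EC20 activation, holding −70 mV and step to +70 mV at 0.05 Hz. Compound was applied cumulatively, 5 min per concentration. Peak current increase as % of baseline was fitted to give EC50 and maximum efficacy.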

Chain of human TMEM16A (TMEM16Aabc variant) (Q5XXA6 with tags, fused parts or gaps DEL476-501): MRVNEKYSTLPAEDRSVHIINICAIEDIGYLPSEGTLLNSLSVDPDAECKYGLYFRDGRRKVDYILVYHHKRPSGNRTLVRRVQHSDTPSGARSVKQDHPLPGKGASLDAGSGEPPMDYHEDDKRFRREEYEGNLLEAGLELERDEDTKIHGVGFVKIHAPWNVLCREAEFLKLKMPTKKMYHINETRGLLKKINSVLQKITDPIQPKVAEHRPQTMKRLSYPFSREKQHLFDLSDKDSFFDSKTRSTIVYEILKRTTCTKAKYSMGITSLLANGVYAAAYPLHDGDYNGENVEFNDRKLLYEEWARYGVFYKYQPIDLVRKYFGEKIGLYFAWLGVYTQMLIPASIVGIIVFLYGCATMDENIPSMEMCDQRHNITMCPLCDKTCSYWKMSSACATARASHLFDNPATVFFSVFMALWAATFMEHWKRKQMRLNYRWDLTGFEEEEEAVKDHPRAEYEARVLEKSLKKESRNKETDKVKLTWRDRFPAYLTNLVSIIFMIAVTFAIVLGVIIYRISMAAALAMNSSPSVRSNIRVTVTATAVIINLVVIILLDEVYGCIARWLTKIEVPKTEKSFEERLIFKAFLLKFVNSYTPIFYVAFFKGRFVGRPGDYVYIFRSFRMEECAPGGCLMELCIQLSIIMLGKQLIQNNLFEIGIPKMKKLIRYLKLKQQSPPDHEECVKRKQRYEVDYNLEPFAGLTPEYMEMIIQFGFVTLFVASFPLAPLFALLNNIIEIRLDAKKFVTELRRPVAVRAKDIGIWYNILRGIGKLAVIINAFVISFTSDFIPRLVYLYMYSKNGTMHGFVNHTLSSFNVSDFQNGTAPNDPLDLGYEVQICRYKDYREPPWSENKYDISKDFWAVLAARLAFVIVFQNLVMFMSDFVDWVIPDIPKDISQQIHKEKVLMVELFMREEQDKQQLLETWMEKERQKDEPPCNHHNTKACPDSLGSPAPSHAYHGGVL

Row | SMILES | % Potentiation @ 3.33 μM Avg [%] | EC50 [nM]
1 | CC(C)(C#N)NC(=O)c1cc(NC(=O)c2cccnc2Oc2ccccc2)ccn1 [Example 83.25, N-[2-[(1-Cyano-1-methyl-ethyl)carbamoyl]-4-pyridyl]-2-phenoxy-pyridine-3-carboxamide] | -8 | 
2 | O=C(Cc1cc(Cl)ccc1O)Nc1ccnc(C(=O)NC2CCNCC2(F)F)c1 (stereo not shown) [Example 32.8, 4-[[2-(5-Chloro-2-hydroxy-phenyl)acetyl]amino]-N-(3,3-difluoro-4-piperidyl)pyridine-2-carboxamide] | 79 | 
3 | C#CC(C)(C)NC(=O)c1cc(NC(=O)CC2CCCC2)ccn1 [Example 22.2, 4-[(2-Cyclopentylacetyl)amino]-N-(1,1-dimethylprop-2-ynyl)pyridine-2-carboxamide] | 157 | 260
4 | O=C(Cc1cc(Cl)ccc1O)Nc1ccnc(C(=O)NC23CC(C2)C3)c1 [Example 7.15, N-(3-Bicyclo[1.1.1]pentanyl)-4-[[2-(5-chloro-2-hydroxy-phenyl)acetyl]amino]pyridine-2-carboxamide] | 230 | 50
5 | Nc1cccc(CNC(=O)c2cc(NC(=O)Cc3cc(Cl)ccc3O)ccn2)n1 [Example 32, N-[(6-Amino-2-pyridyl)methyl]-4-[[2-(5-chloro-2-hydroxy-phenyl)acetyl]amino]pyridine-2-carboxamide] | 171 | 
6 | CC(C)(C)NC(=O)c1cc(NC(=O)Nc2c[nH]c3ccccc23)ccn1 [Example 64.6, N-tert-butyl-4-(1H-indol-3-ylcarbamoylamino)pyridine-2-carboxamide] | 0 | 
7 | CC(C)(C#N)NC(=O)c1cc(NC(=O)C2(C)CCCC2)ccn1 [Example 83.4, N-(1-Cyano-1-methyl-ethyl)-4-[(1-methylcyclopentanecarbonyl)amino]pyridine-2-carboxamide] | 58 | 
8 | CC(C)(C)NC(=O)c1cc(NC(=O)Cc2cc(O)ccc2F)ccn1 [Example 3.13b, N-tert-butyl-4-[[2-(2-fluoro-5-hydroxy-phenyl)acetyl]amino]pyridine-2-carboxamide] | 179 | 250
9 | CC(C)(C#N)NC(=O)c1cc(NC(=O)Cc2ccccc2Cl)ccn1 [Example 30.3a, 4-[[2-(2-Chlorophenyl)acetyl]amino]-N-(1-cyano-1-methyl-ethyl)pyridine-2-carboxamide] | 221 | 
10 | COc1ccc(O)c(CC(=O)Nc2ccnc(C(=O)NC(C)(C)C)c2)c1 [Example 3.8b, N-tert-Butyl-4-[[2-(2-hydroxy-5-methoxy-phenyl)acetyl]amino]pyridine-2-carboxamide] | 203 | 300
11 | O=C(Cc1cc(Cl)ccc1O)Nc1ccnc(C(=O)NCCCOc2ccccc2)c1 [Example 35.7, 4-[[2-(5-Chloro-2-hydroxy-phenyl)acetyl]amino]-N-(3-phenoxypropyl)pyridine-2-carboxamide] | 97 | 
12 | N#CC1(NC(=O)c2cccc(NC(=O)Cc3cc(Cl)ccc3O)c2)CCOCC1 [Example 80, 3-[[2-(5-Chloro-2-hydroxy-phenyl)acetyl]amino]-N-(4-cyanotetrahydropyran-4-yl) benzamide] | 130 | 
13 | CC(C)(C)NC(=O)c1cc(NC(=O)Cc2cc(Cl)ccc2F)ccn1 [Example 5.3, N-tert-Butyl-4-[[2-(5-chloro-2-fluoro-phenyl)acetyl]amino]pyridine-2-carboxamide] | 152 | 880
14 | C#CC(C)(C)NC(=O)c1cc(NC(=O)CC2CCOc3ccccc32)ccn1 (stereo not shown) [Example 79, 4-[(2-Chroman-4-ylacetyl)amino]-N-(1,1-dimethylprop-2-ynyl)pyridine-2-carboxamide] | 60 | 
15 | CC(C)(C)NC(=O)c1cccc(NC(=O)Cc2c[nH]c3ccccc23)c1 [Example 4.5, N-tert-Butyl-3-[[2-(1H-indol-3-yl)acetyl]amino]benzamide] | 138 | 700
16 | CC(C)(NC(=O)c1cc(NC(=O)Cc2ccccc2Cl)ccn1)C(F)F [Example 30.13, 4-[[2-(2-Chlorophenyl)acetyl]amino]-N-(2,2-difluoro-1,1-dimethyl-ethyl)pyridine-2-carboxamide] | 205 | 380
17 | CC(C)(C)NC(=O)c1cc(NC(=O)Cc2c(Cl)cccc2Cl)ccn1 [Example 5.17, N-tert-Butyl-4-[[2-(2,6-dichlorophenyl)acetyl]amino]pyridine-2-carboxamide] | 94 | 650
18 | O=C(Cc1cc(Cl)ccc1O)Nc1ccnc(C(=O)NCc2ccccc2)c1 [Example 35.15, N-Benzyl-4-[[2-(5-chloro-2-hydroxy-phenyl)acetyl]amino]pyridine-2-carboxamide] | 158 | 150
19 | COc1cccc(F)c1CC(=O)Nc1cccc(C(=O)NC(C)(C)C)c1 [Example 4.7, N-tert-Butyl-3-[[2-(2-fluoro-6-methoxy-phenyl)acetyl]amino]benzamide] | 68 | 

Row | SMILES | % Potentiation @ 3.33 μM Avg [%] | EC50 [nM]
20 | CC#CC(C)(C)NC(=O)c1cc(NC(=O)Cc2cc(Cl)ccc2O)ccn1 [Example 73.1, 4-[[2-(5-Chloro-2-hydroxy-phenyl)acetyl]amino]-N-(1,1-dimethylbut-2-ynyl) pyridine-2-carboxamide] | 389 | 280
21 | COCCC(C)(C)NC(=O)c1cc(NC(=O)Cc2cc(Cl)ccc2O)ccn1 [Example 1.4, 4-[[2-(5-Chloro-2-hydroxy-phenyl)acetyl]amino]-N-(3-methoxy-1,1-dimethyl-propyl)pyridine-2-carboxamide] | 195 | 400
22 | CC1(NC(=O)c2cc(NC(=O)Cc3ccccc3Cl)ccn2)CC1 [Example 30.8, 4-[[2-(2-Chlorophenyl)acetyl]amino]-N-(1-methylcyclopropyl)pyridine-2-carboxamide] | 121 | 700
23 | CC(C)(C)NC(=O)c1ccc(O)c(NC(=O)Cc2cc(Cl)ccc2O)c1 [Example 14, N-tert-Butyl-3-[[2-(5-chloro-2-hydroxy-phenyl)acetyl]amino]-4-hydroxy-benzamide] | 58 | 
24 | CC(C)(C)NC(=O)c1cccc(NC(=O)Cc2cc(C#N)ccc2O)c1 [Example 12, N-tert-Butyl-3-[[2-(5-cyano-2-hydroxy-phenyl)acetyl]amino] benzamide] | 112 | 1760
25 | CC(C)(C)NC(=O)c1cc(NC(=O)Cc2cc(F)cc(F)c2)ccn1 [Example 23.7, N-tert-Butyl-4-[[2-(3,5-difluorophenyl)acetyl]amino]pyridine-2-carboxamide] | 98 | 
26 | CC(C)(C)NC(=O)c1cc(NC(=O)Cc2ccc3c(c2)OCCO3)ccn1 [Example 5.31] | 145 | 
27 | CCC(C)(C)NC(=O)c1cccc(NC(=O)Cc2ccc(F)cc2O)c1 [Example 2.13, N-(1,1-Dimethylpropyl)-3-[[2-(4-fluoro-2-hydroxy-phenyl)acetyl]amino] benzamide] | 126 | 460
28 | CC(C)(C)NC(=O)c1cccc(NC(=O)Cc2cc(C(F)(F)F)ccc2O)c1 [Example 2.17, N-tert-Butyl-3-[[2-[2-hydroxy-5-(trifluoromethyl)phenyl]acetyl]amino]benzamide] | 172 | 270
29 | CC(C)(CO)NC(=O)c1cc(NC(=O)Cc2cc(Cl)ccc2O)ccn1 [Example 32.7, 4-[[2-(5-Chloro-2-hydroxy-phenyl)acetyl]amino]-N-(2-hydroxy-1,1-dimethyl-ethyl)pyridine-2-carboxamide] | 111 | 200
30 | C#CC(C)(C)NC(=O)c1cc(NC(=O)Cc2cccc3cc[nH]c23)ccn1 [Example 79.3, N-(1,1-Dimethylprop-2-ynyl)-4-[[2-(1H-indol-7-yl)acetyl]amino]pyridine-2-carboxamide] | 64 | 240
31 | COc1ccc(C(=O)NC(C)(C)C)cc1NC(=O)Cc1cc(Cl)ccc1O [Example 16, N-tert-Butyl-3-[[2-(5-chloro-2-hydroxy-phenyl)acetyl]amino]-4-methoxy-benzamide] | 63 | 
32 | N#CC1(NC(=O)c2cc(NC(=O)Cc3cc(F)ccc3Cl)ccn2)CC1 [Example 23.2, 4-[[2-(2-Chloro-5-fluoro-phenyl)acetyl]amino]-N-(1-cyanocyclopropyl)pyridine-2-carboxamide] | 87 | 
33 | C#CC(C)(C)NC(=O)c1cc(NC(=O)Cc2ccccc2Cl)ccn1 [Example 30.1, 4-[[2-(2-Chlorophenyl)acetyl]amino]-N-(1,1-dimethylprop-2-ynyl)pyridine-2-carboxamide] | 245 | 140
34 | CC(C)(C)NC(=O)c1cc(NC(=O)Cc2c(O)c(Br)cc(F)c2Br)ccn1 [Example 3.7a, N-tert-butyl-4-[2-(2,5-dibromo-3-fluoro-6-hydroxyphenyl)acetamido]pyridine-2-carboxamide] | 135 | 280
35 | CC(C)(C)C(C)(C)NC(=O)c1cccc(NC(=O)Cc2cc(Cl)ccc2O)c1 [Example 7, 3-[[2-(5-Chloro-2-hydroxy-phenyl)acetyl]amino]-N-(1,1,2,2-tetramethylpropyl) benzamide] | 153 | 650
36 | CC(C)(C)NC(=O)c1cc(NC(=O)Cc2cc(Cl)ccc2O)c(Cl)cn1 [Example 55, N-tert-Butyl-5-chloro-4-[[2-(5-chloro-2-hydroxy-phenyl)acetyl]amino]pyridine-2-carboxamide] | 114 | 
37 | CC(C)(C)NC(=O)c1cc(NC(=O)Cc2cc(C(F)(F)F)ccc2O)ccn1 [Example 3.5b, N-tert-Butyl-4-[[2-[2-hydroxy-5-(trifluoromethyl)phenyl]acetyl]amino]pyridine-2-carboxamide] | 150 | 200
